Experimental data taken from article PMC4015961, “New colorimetric screening assays for the directed evolution of fungal laccases to improve the conversion of plant biomass” (BMC Biotechnology, 2013).
Where two headings read alike, the source gives them in different places.

What was measured:
R2 LRPL [1] = biological target: T1, R2 LRPL (Thermothelomyces thermophilus, UniProt G2QG31); experiment: endpoint absorbance increase at […] nm; format: biochemical; details: 2 mM acetosyringone; tartrate pH 4.0; yeast supernatant
T1 construct: gene lcc1; secreted by S. cerevisiae, crude supernatant
T1 sequence (G2QG31 entry or part of it): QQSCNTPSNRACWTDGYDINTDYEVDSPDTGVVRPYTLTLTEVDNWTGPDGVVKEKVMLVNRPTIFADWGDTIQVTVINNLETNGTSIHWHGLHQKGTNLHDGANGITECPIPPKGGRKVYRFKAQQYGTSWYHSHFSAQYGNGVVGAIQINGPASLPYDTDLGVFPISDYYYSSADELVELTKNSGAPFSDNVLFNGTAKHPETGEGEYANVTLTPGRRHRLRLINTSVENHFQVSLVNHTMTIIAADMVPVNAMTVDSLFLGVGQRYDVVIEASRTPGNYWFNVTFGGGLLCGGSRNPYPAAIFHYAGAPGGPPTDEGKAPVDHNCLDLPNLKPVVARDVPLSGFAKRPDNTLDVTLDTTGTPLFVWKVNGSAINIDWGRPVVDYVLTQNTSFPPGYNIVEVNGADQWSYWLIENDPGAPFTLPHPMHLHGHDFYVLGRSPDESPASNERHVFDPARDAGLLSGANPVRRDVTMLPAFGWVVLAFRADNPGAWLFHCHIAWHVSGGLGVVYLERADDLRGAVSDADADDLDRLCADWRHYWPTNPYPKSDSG

[2] = tested on: T2, Trametes villosa laccase (TvL); details: sodium tartrate pH 4.0; crude commercial enzyme
T2 construct: gene LCC1

[3] = tested on: T3, Trametes villosa laccase (TvL); experiment: absorbance increase at […] nm; format: biochemical; details: sodium tartrate pH 4.0; crude commercial enzyme
T3 construct: gene LCC1; crude commercial laccase preparation, Novozymes

R2 LRPL [4] = biological target: T1, R2 LRPL; experiment: endpoint absorbance increase at […] nm; format: biochemical; details: 250 μM sinapic acid; tartrate pH 4.0; yeast supernatant
[5] = tested on: T3, Trametes villosa laccase (TvL); experiment: absorbance increase at […] nm; format: biochemical; details: sodium tartrate pH 4.0; crude commercial enzyme; assigned by order of preceding sentence and Figure 2A-C

In the case of `COc1cc(C(C)=O)cc(OC)c1O` [acetosyringone, 3′,5′-dimethoxy-4′-hydroxyacetophenone], the “endpoint absorbance increase at 520 nm” value (R2 LRPL [1]) is reported as “colored responses were linear (absorbance increased with increasing volumes of supernatant) with both laccases” and the Km [2] is reported as 93 µM.
For `COc1cc(/C=C/C(=O)O)cc(OC)c1O` [sinapic acid], the Km [3] was 85 µM and the “endpoint absorbance increase at 512 nm” value (R2 LRPL [4]) was “colored responses were linear (absorbance increased with increasing volumes of supernatant) with both laccases”.
`COc1cc(C=O)cc(OC)c1O` [syringaldehyde, 3,5-dimethoxy-4-hydroxybenzaldehyde] gave a Km [5] of 120 µM.
